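1) Cells in 96-well plates. 2) Compound, 48 h, 5 concentrations. 3) Linear interpolation between surrounding doses. 4) Unreached endpoint = highest concentration. Here, GI50 denotes the concentration required for 50% inhibition of growth. TGI: concentration producing complete growth inhibition.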
Experiments:
Assay in all cases: NCI anticancer screen, dose series, 48 h
MDA-MB-231 breast = test system: MDA-MB-231 breast
A498 renal = test system: A498 renal
NCI-H522 lung = test system: NCI-H522 lung
SF-539 CNS = test system: SF-539 CNS
PC-3 prostate = test system: PC-3 prostate
HCT-116 colon = test system: HCT-116 colon
LOX IMVI melanoma = test system: LOX IMVI melanoma
MDA-MB-435 = test system: MDA-MB-435
SF-295 CNS = test system: SF-295 CNS
RPMI-8226 leukemia = test system: RPMI-8226 leukemia
786-0 renal = test system: 786-0 renal
MALME-3M melanoma = test system: MALME-3M melanoma
SK-OV-3 ovarian = test system: SK-OV-3 ovarian
U251 CNS = test system: U251 CNS
UACC-257 melanoma = test system: UACC-257 melanoma
SNB-19 CNS = test system: SNB-19 CNS
SK-MEL-2 melanoma = test system: SK-MEL-2 melanoma
COLO 205 colon = test system: COLO 205 colon
DU-145 prostate = test system: DU-145 prostate
HT29 colon = test system: HT29 colon
M14 melanoma = test system: M14 melanoma
UACC-62 melanoma = test system: UACC-62 melanoma
NCI-H460 lung = test system: NCI-H460 lung
T-47D breast = test system: T-47D breast
OVCAR-5 ovarian = test system: OVCAR-5 ovarian
HCT-15 colon = test system: HCT-15 colon
A549 NSCLC = test system: A549 NSCLC
IGROV1 ovarian = test system: IGROV1 ovarian
SNB-75 CNS = test system: SNB-75 CNS
OVCAR-3 ovarian = test system: OVCAR-3 ovarian
SF-268 CNS = test system: SF-268 CNS
RXF 393 renal = test system: RXF 393 renal
SK-MEL-5 melanoma = test system: SK-MEL-5 melanoma
OVCAR-4 ovarian = test system: OVCAR-4 ovarian
SK-MEL-28 melanoma = test system: SK-MEL-28 melanoma
HCC-2998 colon = test system: HCC-2998 colon
SW-620 colon = test system: SW-620 colon
CAKI-1 renal = test system: CAKI-1 renal
TK-10 renal = test system: TK-10 renal
HOP-62 NSCLC = test system: HOP-62 NSCLC
OVCAR-8 ovarian = test system: OVCAR-8 ovarian
ACHN renal = test system: ACHN renal
MCF7 breast = test system: MCF7 breast
EKVX NSCLC = test system: EKVX NSCLC
NCI-H226 lung = test system: NCI-H226 lung
KM12 colon = test system: KM12 colon
HOP-92 NSCLC = test system: HOP-92 NSCLC
NCI-H23 lung = test system: NCI-H23 lung
UO-31 renal = test system: UO-31 renal
SN12C renal = test system: SN12C renal

CC(CN)[C@@H]1CC[C@]2(CO)CC[C@]3(C)[C@H](CC[C@@H]4[C@@]5(C)CCC(N)C(C)(C)[C@@H]5CC[C@]43C)[C@@H]12 (stereo not given in full)
GI50 (MDA-MB-231 breast): 1500 nM | TGI (MDA-MB-231 breast): 3050 nM | GI50 (A498 renal): 1840 nM | TGI (A498 renal): 3310 nM | GI50 (NCI-H522 lung): 1810 nM | TGI (NCI-H522 lung): 3450 nM | GI50 (SF-539 CNS): 1720 nM | TGI (SF-539 CNS): 3310 nM | GI50 (PC-3 prostate): 1740 nM | TGI (PC-3 prostate): 3310 nM | GI50 (HCT-116 colon): 1680 nM | TGI (HCT-116 colon): 3590 nM | GI50 (LOX IMVI melanoma): 1660 nM | TGI (LOX IMVI melanoma): 3330 nM | GI50 (MDA-MB-435): 1730 nM | TGI (MDA-MB-435): 3260 nM | GI50 (SF-295 CNS): 1740 nM | TGI (SF-295 CNS): 3410 nM | GI50 (RPMI-8226 leukemia): 2060 nM | TGI (RPMI-8226 leukemia): 4580 nM | GI50 (786-0 renal): 1580 nM | TGI (786-0 renal): 3380 nM | GI50 (MALME-3M melanoma): 1540 nM | TGI (MALME-3M melanoma): 3290 nM | GI50 (SK-OV-3 ovarian): 1860 nM | TGI (SK-OV-3 ovarian): 3290 nM | GI50 (U251 CNS): 1910 nM | TGI (U251 CNS): 3310 nM | GI50 (UACC-257 melanoma): 1850 nM | TGI (UACC-257 melanoma): 3280 nM | GI50 (SNB-19 CNS): 1790 nM | TGI (SNB-19 CNS): 3290 nM | GI50 (SK-MEL-2 melanoma): 1930 nM | TGI (SK-MEL-2 melanoma): 3600 nM | GI50 (COLO 205 colon): 1910 nM | TGI (COLO 205 colon): 3680 nM | GI50 (DU-145 prostate): 1800 nM | TGI (DU-145 prostate): 3300 nM | GI50 (HT29 colon): 1570 nM | TGI (HT29 colon): 3030 nM | GI50 (M14 melanoma): 1900 nM | TGI (M14 melanoma): 3760 nM | GI50 (UACC-62 melanoma): 1920 nM | TGI (UACC-62 melanoma): 3640 nM | GI50 (NCI-H460 lung): 1840 nM | TGI (NCI-H460 lung): 3490 nM | GI50 (T-47D breast): 1840 nM | TGI (T-47D breast): 3990 nM | GI50 (OVCAR-5 ovarian): 1850 nM | TGI (OVCAR-5 ovarian): 3580 nM | GI50 (HCT-15 colon): 1690 nM | TGI (HCT-15 colon): 3490 nM | GI50 (A549 NSCLC): 1850 nM | TGI (A549 NSCLC): 3290 nM | GI50 (IGROV1 ovarian): 1860 nM | TGI (IGROV1 ovarian): 3780 nM | GI50 (SNB-75 CNS): 1410 nM | TGI (SNB-75 CNS): 2820 nM | GI50 (OVCAR-3 ovarian): 1710 nM | TGI (OVCAR-3 ovarian): 3240 nM | GI50 (SF-268 CNS): 1650 nM | TGI (SF-268 CNS): 3290 nM | GI50 (RXF 393 renal): 1550 nM | TGI (RXF 393 renal): 3070 nM | GI50 (SK-MEL-5 melanoma): 1670 nM | TGI (SK-MEL-5 melanoma): 3080 nM | GI50 (OVCAR-4 ovarian): 1610 nM | TGI (OVCAR-4 ovarian): 3160 nM | GI50 (SK-MEL-28 melanoma): 1910 nM | TGI (SK-MEL-28 melanoma): 3620 nM | GI50 (HCC-2998 colon): 1890 nM | TGI (HCC-2998 colon): 3660 nM | GI50 (SW-620 colon): 1800 nM | TGI (SW-620 colon): 3430 nM | GI50 (CAKI-1 renal): 1630 nM | TGI (CAKI-1 renal): 3120 nM | GI50 (TK-10 renal): 1690 nM | TGI (TK-10 renal): 3100 nM | GI50 (HOP-62 NSCLC): 1840 nM | TGI (HOP-62 NSCLC): 3550 nM | GI50 (OVCAR-8 ovarian): 1920 nM | TGI (OVCAR-8 ovarian): 3360 nM | GI50 (ACHN renal): 1770 nM | TGI (ACHN renal): 3220 nM | GI50 (MCF7 breast): 1570 nM | TGI (MCF7 breast): 3520 nM | GI50 (EKVX NSCLC): 1730 nM | TGI (EKVX NSCLC): 3510 nM | GI50 (NCI-H226 lung): 1950 nM | TGI (NCI-H226 lung): 4040 nM | GI50 (KM12 colon): 1740 nM | TGI (KM12 colon): 3340 nM | GI50 (HOP-92 NSCLC): 1450 nM | TGI (HOP-92 NSCLC): 3070 nM | GI50 (NCI-H23 lung): 1850 nM | TGI (NCI-H23 lung): 3700 nM | GI50 (UO-31 renal): 1550 nM | TGI (UO-31 renal): 3040 nM | GI50 (SN12C renal): 1910 nM | TGI (SN12C renal): 3670 nM
